Results: BindingDB's records for PubMed 35777269 (University of Maryland, 2022)

Molecular target: Protein Wnt-3a (Human, UniProt P56704)
Assay: Inhibition of recombinant human Wnt3a in HEK293 cells assessed as Wnt signalling by measuring reduction in relative luminescence units incubated for 24 hrs by luciferase reporter assay

Protein Wnt-3a, sequence (P56704 whole entry): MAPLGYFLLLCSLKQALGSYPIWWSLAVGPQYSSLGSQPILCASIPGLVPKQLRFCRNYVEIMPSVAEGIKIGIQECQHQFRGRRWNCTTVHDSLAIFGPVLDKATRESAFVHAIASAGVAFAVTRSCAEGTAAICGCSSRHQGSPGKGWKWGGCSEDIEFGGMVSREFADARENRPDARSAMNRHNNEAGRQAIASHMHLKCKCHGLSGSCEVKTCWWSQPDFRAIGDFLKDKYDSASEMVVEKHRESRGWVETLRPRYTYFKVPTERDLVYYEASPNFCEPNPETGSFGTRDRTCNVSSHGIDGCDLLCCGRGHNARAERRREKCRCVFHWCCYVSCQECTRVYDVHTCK

Cc1ccccc1-n1nnc(C(=O)Nc2ccc3ccccc3n2)c1C
IC50: 4.1 nM
